{"source": "patent US20240315985A1", "about": "(Dermavant Sciences GmbH, priority 2021, published 2024)", "key": {"[1]": {"test_system": "plaque psoriasis in adults", "assay": "Physician Global Assessment (PGA), long-term open-label extension study (PSOARING 3) of tapinarof cream, 1%", "type": "in vivo, human", "description": "This extension study consisted of up to 40 weeks of treatment and a 4 week, safety follow up period.\nThe PGA was used to assess the primary efficacy endpoint in this study. The PGA is a clinical tool for assessing the current state/severity of a subject's psoriasis at a given time point. It is a static, 5 point, morphological assessment of overall disease severity, as determined by the Investigator, using the clinical characteristics of erythema, scaling, and plaque thickness/elevation as guidelines; higher PGA scores represent more severe disease (0=clear, 1=almost clear, 2=mild, 3=moderate, and 4=severe). The BSA affected was not considered in scoring of the PGA. Variations of the PGA are frequently used in clinical studies because it is a simple assessment, similar to those used in clinical practice. The PGA was performed first, prior to the % BSA, PASI, and LTS assessments.\nTime to event parameters, such as the time from treatment success to subsequent worsening (PGA≥2) or duration of treatment episode, were summarized by the Kaplan Meier product limit method using OC."}, "[2]": {"test_system": "plaque psoriasis in adults", "assay": "Safety: adverse events (AEs, TEAEs, AESIs, SAEs), extension study", "type": "in vivo, human", "description": "Endpoints: Incidence, frequency, and nature of AEs, adverse events of special interest (AESIs), and serious adverse events (SAEs), Change over time in clinical laboratory tests and frequency of clinically significant abnormal test results, Change over time in vital signs and frequency of clinically significant abnormal results, Local Tolerability Scale (LTS) scores by severity summarized by visit.\nSafety assessments included AEs, AESIs, SAEs, local (application site) tolerability, clinical laboratory tests, vital signs, physical examinations, and Investigator assessed LTS. Efficacy assessments included a 5 point static PGA (0 [clear], 1 [almost clear], 2 [mild], 3 [moderate], 4 [severe]), % BSA affected, the PASI, and subject reported DLQI."}, "[3]": {"assay": "Plasma concentrations, maximal use study with serial PK sampling", "type": "in vivo, human", "conditions": "between Days 1 and 29", "description": "This unique PK profile is characterized by the highest plasma concentrations being observed on the first day or week of the treatment period followed by a subsequent decline to undetectable or near undetectable levels in the plasma after multiple weeks of dosing.\n(FIG. 2). This decline is further supported by serial PK data collected from previous clinical studies over 28 days of dosing and over 21 days of dosing."}, "[4]": {"assay": "Preclinical repeat dosing study, systemic exposure", "type": "in vivo", "conditions": "CYP1A1/2 induced in skin or liver", "description": "The reason for the decrease in plasma concentrations over time is unknown. Without wishing to be bound by theory, as the skin heals, there may be less penetration of the drug through the stratum corneum and into the systemic circulation since the barrier is restored."}, "[5]": {"test_system": "psoriasis", "assay": "12-week phase 2b trial in psoriasis, maintenance after treatment cessation", "type": "in vivo, human", "description": "As mentioned, tapinarof is a novel therapeutic aryl hydrocarbon receptor modulating agent (TAMA) in clinical development for the topical treatment of psoriasis and atopic dermatitis. […] AhR modulates T cell responses both through intrinsic control of T cell subset differentiation and via controlling the function of antigen presenting cells. In addition, AhR signaling promotes the conversion of Th17 cells to type 1 regulatory T cells. Aberrant immune responses underpin the pathogenesis of both PsO and AD, and the wide expression of AhR in immune cells makes it an attractive target given the essential role of AhR in regulating inflammatory responses and skin homeostasis. […] These clinical data support the role of AhR in skin immune homeostasis. Given the multitude of AhR-dependent immunoregulatory mechanisms, AhR is an attractive target for novel immunotherapies with the potential to extend therapeutic efficacy following treatment discontinuation; this may provide a unique clinical benefit to patients."}}, "data": [{"smiles": "CC(C)c1c(O)cc(/C=C/c2ccccc2)cc1O", "note": "[tapinarof, 3,5-Dihydroxy-4-isopropyl-trans-stilbene]", "values": [{"measurement": "Durability of Response, No. of Subjects", "setting": "[1]; Vehicle→Tapinarof, Wk. 0", "value": 22}, {"measurement": "Remittive effect off therapy", "setting": "[1]; patients with complete disease clearance (PGA=0)", "value": "approximately 4 months"}, {"measurement": "Study discontinuation due to AESI: Dermatitis contact, Patients, %", "setting": "[2]; Overall (n = 763)", "value": "(1.4) %"}, {"measurement": "Study discontinuation due to AESI: Folliculitis, Patients, %", "setting": "[2]; Overall (n = 763)", "value": "(1.2) %"}, {"measurement": "Study discontinuation due to TEAEs, Patients, %", "setting": "[2]; Overall (n = 763)", "value": "(5.4) %"}, {"measurement": "Treatment-emergent AESI: Dermatitis contact, Patients, %", "setting": "[2]; Overall (n = 763)", "value": "(5.9) %"}, {"measurement": "Treatment-emergent AESI: Folliculitis, Patients, %", "setting": "[2]; Overall (n = 763)", "value": "(24.0) %"}, {"measurement": "Treatment-emergent AESI: Headache, Patients, %", "setting": "[2]; Overall (n = 763)", "value": "(2.0) %"}, {"measurement": "Study discontinuation due to AESI: Dermatitis contact, Patients, %", "setting": "[2]; Tapinarof→Tapinarof (n = 508)", "value": "(1.4) %"}, {"measurement": "Study discontinuation due to AESI: Folliculitis, Patients, %", "setting": "[2]; Tapinarof→Tapinarof (n = 508)", "value": "(1.2) %"}, {"measurement": "Study discontinuation due to TEAEs, Patients, %", "setting": "[2]; Tapinarof→Tapinarof (n = 508)", "value": "(5.1) %"}, {"measurement": "Treatment-emergent AESI: Dermatitis contact, Patients, %", "setting": "[2]; Tapinarof→Tapinarof (n = 508)", "value": "(4.7) %"}, {"measurement": "Treatment-emergent AESI: Folliculitis, Patients, %", "setting": "[2]; Tapinarof→Tapinarof (n = 508)", "value": "(24.4) %"}, {"measurement": "Treatment-emergent AESI: Headache, Patients, %", "setting": "[2]; Tapinarof→Tapinarof (n = 508)", "value": "(2.0) %"}, {"measurement": "Study discontinuation due to AESI: Dermatitis contact, Patients, %", "setting": "[2]; Vehicle→Tapinarof (n = 255)", "value": "(1.6) %"}, {"measurement": "Study discontinuation due to AESI: Folliculitis, Patients, %", "setting": "[2]; Vehicle→Tapinarof (n = 255)", "value": "(1.2) %"}, {"measurement": "Study discontinuation due to TEAEs, Patients, %", "setting": "[2]; Vehicle→Tapinarof (n = 255)", "value": "(5.9) %"}, {"measurement": "Treatment-emergent AESI: Dermatitis contact, Patients, %", "setting": "[2]; Vehicle→Tapinarof (n = 255)", "value": "(8.2) %"}, {"measurement": "Treatment-emergent AESI: Folliculitis, Patients, %", "setting": "[2]; Vehicle→Tapinarof (n = 255)", "value": "(23.1) %"}, {"measurement": "Treatment-emergent AESI: Headache, Patients, %", "setting": "[2]; Vehicle→Tapinarof (n = 255)", "value": "(2.0) %"}, {"measurement": "Decline in plasma concentrations of tapinarof", "setting": "[3]", "value": 10, "unit": "fold"}, {"measurement": "Change in systemic exposures with repeat dosing compared to single doses", "setting": "[4]; minipigs", "value": "no changes in systemic exposures"}, {"measurement": "Change in systemic exposures with repeat dosing compared to single doses", "setting": "[4]; rats", "value": "no changes in systemic exposures"}, {"measurement": "Time efficacy was maintained after treatment cessation", "setting": "[5]", "value": "four"}]}]}
